Experimental data published in PMC7177216, “A Novel Highly Sensitive Method for Measuring Inflammatory Neural-Derived APC Activity in Glial Cell Lines, Mouse Brain and Human CSF” (International Journal of Molecular Sciences, 2020).

How the values were obtained:
bovine FXa = target: T1, bovine FXa (Bos taurus, UniProt P00743); details: 1 µM inhibitor; 20 µM substrate; 1 mM CaCl2, 50 mM Tris-HCl pH 8.0; 37 °C
T1 construct: gene F10

Bovine thrombin = target: T2, Bovine thrombin (Bos taurus, UniProt P00735); details: 1 µM inhibitor; 20 µM substrate; 1 mM CaCl2, 50 mM Tris-HCl pH 8.0; 37 °C
T2 construct: gene F2

T1 sequence (P00743 41-180): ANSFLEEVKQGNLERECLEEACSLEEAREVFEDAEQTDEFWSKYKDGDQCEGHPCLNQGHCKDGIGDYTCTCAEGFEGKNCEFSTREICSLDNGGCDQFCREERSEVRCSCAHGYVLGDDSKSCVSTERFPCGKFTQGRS
T1 sequence (P00743 234-492): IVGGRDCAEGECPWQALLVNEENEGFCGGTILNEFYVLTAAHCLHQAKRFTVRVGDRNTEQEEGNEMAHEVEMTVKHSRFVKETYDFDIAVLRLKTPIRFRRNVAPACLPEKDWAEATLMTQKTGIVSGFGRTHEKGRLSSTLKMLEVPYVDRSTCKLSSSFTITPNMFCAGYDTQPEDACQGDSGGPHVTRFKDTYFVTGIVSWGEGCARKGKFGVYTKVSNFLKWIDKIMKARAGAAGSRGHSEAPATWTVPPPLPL

N=C(N)c1ccc(CC(NC(=O)CNS(=O)(=O)c2ccc3ccccc3c2)C(=O)N2CCCCC2)cc1 (centres unmarked) [NAPAP]
inhibition of cleavage of Pyr-Pro-Arg-AMC (fluorescence) (bovine FXa): FXa activity was fully blocked by apixaban and partially blocked by NAPAP | inhibition of cleavage of Pyr-Pro-Arg-AMC (fluorescence) (Bovine thrombin): cleavage of the substrate by thrombin was fully blocked by NAPAP
